# Measured values reported in US8658697B2 (priority 2004, dated 2014).
# System: Tacaribe virus (TRVL 11573)
# Assay: microbe, parasite or virus in culture
# Assay type: cell-based
# Conditions: Mammarenavirus tacaribeense, Vero, read-out: Tacaribe EC50
row,Structure (SMILES),EC50 [nM]
1,CC(NC(=O)NNS(=O)(=O)c1ccc(-c2ccccc2)cc1)(C(F)(F)F)C(F)(F)F [Example 1],< 500
2,CC(C)(C)c1ccc(S(=O)(=O)NNC(=O)NC(C)(C(F)(F)F)C(F)(F)F)cc1 [Example 2],< 500
3,"CN1CCOc2cc(S(=O)(=O)NNC(=O)NC(C)(C(F)(F)F)C(F)(F)F)ccc21 [Example 3, N-2-(1,1,1,3,3,3-Hexafluoro-2-methylpropyl)-2-[7-(4-methyl-3,4-dihydro-2H-benzo[1,4]oxazinyl)sulfonyl] hydrazine-1-carboxamide]",< 500
4,"CN(C)c1cccc2c(S(=O)(=O)NNC(=O)NC(C)(C(F)(F)F)C(F)(F)F)cccc12 [Example 4, N-2-(1,1,1,3,3,3-Hexafluoro-2-methylpropyl)-2-[5-(1-dimethylamino-naphthyl)sulfonyl]hydrazine-1-carboxamide]",< 500
5,"Cc1cc(C)c(S(=O)(=O)NNC(=O)NC(C)(C(F)(F)F)C(F)(F)F)c(C)c1 [Example 5, N-2-(1,1,1,3,3,3-Hexafluoro-2-methylpropyl)-2-[(2,4,6-trimethylphenyl)sulfonyl)hydrazine-1-carboxamide]",< 500
6,"COc1ccc(Cl)cc1S(=O)(=O)NNC(=O)NC(C)(C(F)(F)F)C(F)(F)F [Example 6, N-2-(1,1,1,3,3,3-Hexafluoro-2-methylpropyl)-2-[(3-chloro-6-methoxyphenyl)sulfonyl]hydrazine-1-carboxamide]",< 500
7,"COc1ccc(OC)c(S(=O)(=O)NNC(=O)NC(C)(C(F)(F)F)C(F)(F)F)c1 [Example 7, N-2-(1,1,1,3,3,3-Hexafluoro-2 methylpropyl)-2-[(3,6-dimethoxyphenyl)sulfonyl] hydrazine-1-carboxamide]",< 500
8,"CC(NC(=O)NNS(=O)(=O)c1ccc(-c2csnn2)cc1)(C(F)(F)F)C(F)(F)F [Example 8, N-2-(1,1,1,3,3,3-Hexafluoro-2-methylpropyl)-2-[(4-(4-[1,2,3]thiadiazolyl)phenyl)sulfonyl] hydrazine-1-carboxamide]",< 500
9,"CC(NC(=O)NNS(=O)(=O)c1cccc(Br)c1)(C(F)(F)F)C(F)(F)F [Example 9, N-2-(1,1,1,3,3,3-Hexafluoro-2-methylpropyl)-2-[(3-bromophenyl)sulfonyl)hydrazine-1-carboxamide]",< 500
10,"CC(NC(=O)NNS(=O)(=O)c1ccc(Br)cc1)(C(F)(F)F)C(F)(F)F [Example 10, N-2-(1,1,1,3,3,3-Hexafluoro-2-methylpropyl)-2-[(4-bromophenyl)sulfonyl]hydrazine-1-carboxamide]",< 500
11,"Cc1ccc(S(=O)(=O)NNC(=O)NC(C)(C(F)(F)F)C(F)(F)F)cc1 [Example 11, N-2-(1,1,1,3,3,3-Hexafluoro-2-methylpropyl)-2-[(4-methylphenyl)sulfonyl]hydrazine-1-carboxamide]",< 500
12,"COc1ccc(S(=O)(=O)NNC(=O)NC(C)(C(F)(F)F)C(F)(F)F)cc1 [Example 12, N-2-(1,1,1,3,3,3-Hexafluoro-2-methylpropyl)-2-[(4-methylphenyl)sulfonyl]hydrazine-1-carboxamide]",< 500
13,"CC(NC(=O)NNS(=O)(=O)c1ccc(OC(F)F)cc1)(C(F)(F)F)C(F)(F)F [Example 13, N-2-(1,1,1,3,3,3-Hexafluoro-2-methylpropyl)-2-[(4-difluoromethoxyphenyl)sulfonyl] hydrazine-1-carboxamide]",< 500
14,"CC(NC(=O)NNS(=O)(=O)c1ccc(Cl)c(F)c1)(C(F)(F)F)C(F)(F)F [Example 14, N-2-(1,1,1,3,3,3-Hexafluoro-2-methylpropyl)-2-[(3-fluoro-4-chloro-phenyl)sulfonyl]hydrazine-1-carboxamide]",500 to 1000
15,"CC(NC(=O)NNS(=O)(=O)c1ccc(OC(F)(F)F)cc1)(C(F)(F)F)C(F)(F)F [Example 15, N-2-(1,1,1,3,3,3-Hexafluoro-2-methylpropyl)-2-[(4-trifluoromethoxyphenyl)sulfonyl] hydrazine-1-carboxamide]",500 to 1000
16,"CC(NC(=O)NNS(=O)(=O)c1ccc(F)cc1)(C(F)(F)F)C(F)(F)F [Example 16, N-2-(1,1,1,3,3,3-Hexafluoro-2-methylpropyl)-2-[(4-fluoro-phenyl)sulfonyl]hydrazine-1-carboxamide]",500 to 1000
17,"COc1cccc(S(=O)(=O)NNC(=O)NC(C)(C(F)(F)F)C(F)(F)F)c1 [Example 17, N-2-(1,1,1,3,3,3-Hexafluoro-2-methylpropyl)-2-[(3-methoxyphenyl)sulfonyl]hydrazine-1-carboxamide]",500 to 1000
18,"Cc1ccccc1S(=O)(=O)NNC(=O)NC(C)(C(F)(F)F)C(F)(F)F [Example 18, N-2-(1,1,1,3,3,3-Hexafluoro-2-methylpropyl)-2-[(2-methoxyphenyl)sulfonyl]hydrazine-1-carboxamide]",500 to 1000
19,CC(NC(=O)NNS(=O)(=O)c1cccc(C(F)(F)F)c1)(C(F)(F)F)C(F)(F)F [Example 19],500 to 1000
20,"COc1ccc(S(=O)(=O)NNC(=O)NC(C)(C(F)(F)F)C(F)(F)F)c(OC)c1 [Example 20, N-2-(1,1,1,3,3,3-Hexafluoro-2-methylpropyl)-2-[(2,4-dimethoxyphenyl)sulfonyl] hydrazine-1-carboxamide]",500 to 1000

row,Structure (SMILES),EC50 [nM]
1,"Cc1cccc(S(=O)(=O)NNC(=O)NC(C)(C(F)(F)F)C(F)(F)F)c1 [Example 22, N-2-(1,1,1,3,3,3-Hexafluoro-2-methylpropyl)-2-[(3-methylphenyl)sulfonyl]hydrazine-1-carboxamide]",500 to 1000
2,"CC(NC(=O)NNS(=O)(=O)c1ccc(C(F)(F)F)cc1)(C(F)(F)F)C(F)(F)F [Example 23, N-2-(1,1,1,3,3,3-Hexafluoro-2-methylpropyl)-2-[(4-trifluoromethylphenyl)sulfonyl] hydrazine-1-carboxamide]",500 to 1000
3,"CC(NC(=O)NNS(=O)(=O)c1ccccc1C(F)(F)F)(C(F)(F)F)C(F)(F)F [Example 24, N-2-(1,1,1,3,3,3-Hexafluoro-2-methylpropyl)-2-[(2-trifluoromethylphenyl)sulfonyl] hydrazine-1-carboxamide]",1000 to 5000
4,"CC(NC(=O)NNS(=O)(=O)c1ccc(S(=O)(=O)N2CCCC2)cc1)(C(F)(F)F)C(F)(F)F [Example 25, N-2-(1,1,1,3,3,3-Hexafluoro-2-methylpropyl)-2-[4-(pyrrolidin-1-sulfonyl)phenylsulfonyl]hydrazine-1-carboxamide]",1000 to 5000
5,"CC(NC(=O)NNS(=O)(=O)c1ccccc1Cl)(C(F)(F)F)C(F)(F)F [Example 26, N-2-(1,1,1,3,3,3-Hexafluoro-2-methylpropyl)-2-[(2-chlorophenyl)sulfonyl]hydrazine-1-carboxamide]",1000 to 5000
6,"CC(NC(=O)NNS(=O)(=O)c1ccc(N2CCOCC2)nc1)(C(F)(F)F)C(F)(F)F [Example 27, N-2-(1,1,1,3,3,3-Hexafluoro-2-methylpropyl)-2-(2-(5-morpholin-4-yl)pyridylsulfonyl]hydrazine-1-carboxamide]",1000 to 5000
7,"CC(NC(=O)NNS(=O)(=O)c1ccccc1OC(F)(F)F)(C(F)(F)F)C(F)(F)F [Example 28, N-2-(1,1,1,3,3,3-Hexafluoro-2-methylpropyl)-2-[(2-trifluoromethoxyphenyl)sulfonyl] hydrazine-1-carboxamide]",1000 to 5000
8,"CC(NC(=O)NNS(=O)(=O)c1ccc(Cl)cc1Cl)(C(F)(F)F)C(F)(F)F [Example 29, N-2-(1,1,1,3,3,3-Hexafluoro-2-methylpropyl)-2-[(2,4-dichlorophenyl)sulfonyl]hydrazine-1-carboxamide]",1000 to 5000
9,"CC(NC(=O)NNS(=O)(=O)c1ccccc1)(C(F)(F)F)C(F)(F)F [Example 30, N-2-(1,1,1,3,3,3-Hexafluoro-2-methylpropyl)-2-[phenylsulfonyl]hydrazine-1-carboxamide]",1000 to 5000
10,"CC(NC(=O)NNS(=O)(=O)c1cccc(OC(F)F)c1)(C(F)(F)F)C(F)(F)F [Example 31, N-2-(1,1,1,3,3,3-Hexafluoro-2-methylpropyl)-2-[(3-difluoromethoxyphenyl)sulfonyl] hydrazine-1-carboxamide]",1000 to 5000
11,"CC(NC(=O)NNS(=O)(=O)c1cccc(C#N)c1)(C(F)(F)F)C(F)(F)F [Example 32, N-2-(1,1,1,3,3,3-Hexafluoro-2-methylpropyl)-2-[(3-cyanophenyl)sulfonyl]hydrazine-1-carboxamide]",1000 to 5000
12,"CC(NC(=O)NNS(=O)(=O)c1ccc(C#N)cc1)(C(F)(F)F)C(F)(F)F [Example 33, N-2-(1,1,1,3,3,3-Hexafluoro-2-methylpropyl)-2-[(4-cyanophenyl)sulfonyl]hydrazine-1-carboxamide]",1000 to 5000
13,"CC(NC(=O)NNS(=O)(=O)c1cccc2c1OCCO2)(C(F)(F)F)C(F)(F)F [Example 34, N-2-(1,1,1,3,3,3-Hexafluoro-2-methylpropyl)-2-[5-(2,3-dihydrobenzo[1,4]dioxinyl)sulfonyl]hydrazine-1-carboxamide]",1000 to 5000
14,Cc1ccc(S(=O)(=O)NN(C)C(=O)NC(C)(C(F)(F)F)C(F)(F)F)cc1 [Example 35],1000 to 5000
15,"CC(NC(=O)NNS(=O)(=O)c1cccc(F)c1)(C(F)(F)F)C(F)(F)F [Example 36, N-2-(1,1,1,3,3,3-Hexafluoro-2-methylpropyl)-2-[(3-fluorophenyl)sulfonyl]hydrazine-1-carboxamide]",1000 to 5000
16,"CC(NC(=O)NNS(=O)(=O)c1ccc(F)c(F)c1)(C(F)(F)F)C(F)(F)F [Example 37, N-2-(1,1,1,3,3,3-Hexafluoro-2-methylpropyl)-2-[(3,4-difluorophenyl)sulfonyl]hydrazine-1-carboxamide]",1000 to 5000
17,"Cc1nc(C)c(S(=O)(=O)NNC(=O)NC(C)(C(F)(F)F)C(F)(F)F)s1 [Example 38, N-2-(1,1,1,3,3,3-Hexafluoro-2-methylpropyl)-2-[(2,4-dimethylthiazol-5-yl)sulfonyl]hydrazine-1-carboxamide]",1000 to 5000
18,"CC(NC(=O)NNS(=O)(=O)c1c(F)cccc1F)(C(F)(F)F)C(F)(F)F [Example 40, N-2-(1,1,1,3,3,3-Hexafluoro-2-methylpropyl)-2-[(2,6-difluorophenyl)sulfonyl]hydrazine-1-carboxamide]",1000 to 5000
19,"CC(NC(=O)NNS(=O)(=O)c1ccccc1F)(C(F)(F)F)C(F)(F)F [Example 41, N-2-(1,1,1,3,3,3-Hexafluoro-2-methylpropyl)-2-[(2-fluorophenyl)sulfonyl]hydrazine-1-carboxamide]",1000 to 5000
